Measurements reported in US20170348306A1, “METHODS OF TREATING CANCER” (GLAXOSMITHKLINE LLC, priority 2011, published 2017).
Where two headings read alike, the source gives them in different places.

Experiments:
Assay in all cases: Cell proliferation assay (6 days, CellTiter-Glo)
Format in all cases: cell-based
[1] = system: BC-1; settings: Homo sapiens, BC1, 144 h, AIDS-BCBL, EZH2 WT, read-out: AVERAGE GROWTH IC50
Text: (§1) Thus, Example 22 and Table 6 better reflect the inhibition of HZH2 inhibitors on cell lines, e.g. the lymphoma cell lines. DLBCL cell lines were the most sensitive to EZH2 inhibition (FIG. 11a). […] Evaluation of GSK126 in additional lymphoma cell lines and extensive genomic and epigenomic characterization will be required to fully elucidate the determinants of sensitivity among lymphoma subtypes.
(§2) Biochemical assays utilized the 5-member PRC2 complex (human Flag-EZH2, EED, SUZ12, AEBP2, RbAp48) containing either WT or mutant EZH2, [^3H-]SAM and the indicated peptide substrate; reactions were incubated for 30 minutes. Global histone modification levels were determined by ELISA or western blot methods using antibodies specific for total histone H3, H3K27me1, H3K27me2, or H3K27me3. Cell proliferation and Caspase-3/7 activity were assessed using CellTiter-Glo and Caspase-Glo 3/7 (Promega), respectively. Gene expression profiling was conducted using Affymetrix Human Genome U133 Plus 2.0 microarrays. Differentially-expressed probe sets were determined by fitting the data to a linear model using the limma statistical package (http://www.bioconductor.org) and carrying out pair-wise contrasts of treated versus control. Significant probe sets were filtered for detection (log2 signal threshold of 8), an average fold-change >2 or <−2, or >1.5 or <−1.5, where indicated, with p-values adjusted for multiple testing correction by FDR (Benjamini Hochberg)<0.1. H3K27me3 ChIP reads were aligned using Bowtie (56). H3K27me3 enrichment peaks were identified using SICER (57) with optimized parameters. A custom PERL script was utilized to quantify the average basal H3K27me3 ChIP-seq tag density across gene sets. All in vivo studies were conducted after review by the Institutional Animal Care and Use Committee at GSK and in accordance with the GSK Policy on the Care, Welfare and Treatment of Laboratory Animals. GSK126 and vehicle were administered to mice intraperitoneally. Two-tailed t-tests were conducted assuming two samples of equal variance.
(§3) The optimal cell seeding was determined empirically for all cell lines by examining the growth of a wide range of seeding densities in a 384-well format to identify conditions that permitted proliferation for 6 days. […] Plates were incubated for 6 days at 37° C. in 5% CO2. Cells were then lysed with CellTiter-Glo (Promega) and chemiluminescent signal was detected with a TECAN Safire2 microplate reader. In addition, an untreated plate of cells was harvested at the time of compound addition (T0) to quantify the starting number of cells. CTG values obtained after the 6 day treatment were expressed as a percent of the T0 value and plotted against compound concentration.

[2] = system: BC-2; settings: Homo sapiens, 144 h, AIDS-BCBL, EZH2 WT, read-out: AVERAGE GROWTH IC50
Text: as §1, §2, §3

[3] = system: CRO-AP2; settings: Homo sapiens, 144 h, PEL, AIDS-BCBL, EZH2 WT, read-out: AVERAGE GROWTH IC50
Text: as §1, §2, §3

[4] = system: DB; settings: Homo sapiens, 144 h, DLBCL, EZH2 Y641N (HET), read-out: AVERAGE GROWTH IC50
Text: as §1, §2, §3

[5] = system: DG-75; settings: Homo sapiens, 144 h, BURKITT, EZH2 WT, read-out: AVERAGE GROWTH IC50
Text: as §1, §2, §3

[6] = system: Hs 445; settings: Homo sapiens, 144 h, HODGKIN'S, EZH2 WT, read-out: AVERAGE GROWTH IC50
Text: as §1, §2, §3

[7] = system: Jiyoye; settings: Homo sapiens, 144 h
Text: as §1, §2, §3

[8] = system: KARPAS-1106P; settings: Homo sapiens, 144 h, MLBCL, EZH2 E744A (HET), read-out: AVERAGE GROWTH IC50
Text: as §1, §2, §3

[9] = system: L-428; settings: Homo sapiens, 144 h, HODGKIN'S, EZH2 Y641S (HET), read-out: AVERAGE GROWTH IC50
Text: as §1, §2, §3

[10] = system: MHH-PREB-1; settings: Homo sapiens, 144 h, B-NHL, EZH2 WT, read-out: AVERAGE GROWTH IC50
Text: as §1, §2, §3

[11] = system: SU-DHL-10; settings: Homo sapiens, SU-DHL10, 144 h, DLBCL, EZH2 Y641F (HET), read-out: AVERAGE GROWTH IC50
Text: as §1, §2, §3

[12] = system: SU-DHL-4; settings: Homo sapiens, 144 h, DLBCL, EZH2 Y641S (HET), Y661N (HET), read-out: AVERAGE GROWTH IC50
Text: as §1, §2, §3

[13] = system: WILL-1; settings: Homo sapiens, 144 h, DLBCL, EZH2 D185H (HET), read-out: AVERAGE GROWTH IC50
Text: as §1, §2, §3

[14] = system: WSU-DLCL2; settings: Homo sapiens, WSUDLCL2, 144 h, DLBCL, EZH2 Y641F (HET), read-out: AVERAGE GROWTH IC50
Text: as §1, §2, §3

CC[C@H](C)n1cc(C)c2c(C(=O)NCc3c(C)cc(C)[nH]c3=O)cc(-c3ccc(N4CCNCC4)nc3)cc21 [GSK126]
IC50 [1]: 8.29 µM | IC50 [2]: 4.76 µM | IC50 [3]: 1.64 µM | IC50 [4]: 0.861 µM | IC50 [5]: 3.25 µM | IC50 [6]: 3.53 µM | IC50 ([7]; JIYOYE, BURKITT, EZH2 WT, read-out: AVERAGE GROWTH IC50): 0.232 µM | IC50 ([7]; Jiyoye, BL cell line with WT EZH2, read-out: growth IC50): 0.23 µM | IC50 [8]: 4.54 µM | IC50 [9]: 4.7 µM | IC50 [10]: 5.3 µM | IC50 [11]: 0.448 µM | IC50 [12]: 4.83 µM | IC50 [13]: 5.53 µM | IC50 [14]: 0.134 µM
